# From PubChem BioAssay (NCI)
#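 How tested: cells in 96-well plates exposed to compound for 48 hours at five concentrations. Abbreviation: GI50, concentration required for 50% inhibition of growth. Definition used: TGI = concentration required for complete inhibition of growth.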
# Columns and labels:
# Assay in all cases: NCI tumour cell line growth inhibition, 48 h
# SK-MEL-2 melanoma = tested on: SK-MEL-2 melanoma
# RPMI-8226 leukemia = tested on: RPMI-8226 leukemia
# A498 renal = tested on: A498 renal
# LOX IMVI melanoma = tested on: LOX IMVI melanoma
# CCRF-CEM leukemia = tested on: CCRF-CEM leukemia
# 786-0 renal = tested on: 786-0 renal
# SK-OV-3 ovarian = tested on: SK-OV-3 ovarian
# U251 CNS = tested on: U251 CNS
# SK-MEL-5 melanoma = tested on: SK-MEL-5 melanoma
# HS 578T breast = tested on: HS 578T breast
# HT29 colon = tested on: HT29 colon
# UACC-62 melanoma = tested on: UACC-62 melanoma
# NCI-H460 lung = tested on: NCI-H460 lung
# NCI-H522 lung = tested on: NCI-H522 lung
# HOP-92 NSCLC = tested on: HOP-92 NSCLC
# HCC-2998 colon = tested on: HCC-2998 colon
# TK-10 renal = tested on: TK-10 renal
# DU-145 prostate = tested on: DU-145 prostate
# SN12C renal = tested on: SN12C renal
# COLO 205 colon = tested on: COLO 205 colon
# BT-549 breast = tested on: BT-549 breast
# SNB-75 CNS = tested on: SNB-75 CNS
# NCI/ADR-RES ovarian = tested on: NCI/ADR-RES ovarian
# SF-295 CNS = tested on: SF-295 CNS
# PC-3 prostate = tested on: PC-3 prostate
# T-47D breast = tested on: T-47D breast
# ACHN renal = tested on: ACHN renal
# HCT-15 colon = tested on: HCT-15 colon
# OVCAR-3 ovarian = tested on: OVCAR-3 ovarian
# MCF7 breast = tested on: MCF7 breast
# CAKI-1 renal = tested on: CAKI-1 renal
# SNB-19 CNS = tested on: SNB-19 CNS
# SK-MEL-28 melanoma = tested on: SK-MEL-28 melanoma
# NCI-H226 lung = tested on: NCI-H226 lung
# OVCAR-4 ovarian = tested on: OVCAR-4 ovarian
# KM12 colon = tested on: KM12 colon
# NCI-H23 lung = tested on: NCI-H23 lung
# UO-31 renal = tested on: UO-31 renal
# SF-268 CNS = tested on: SF-268 CNS
# MALME-3M melanoma = tested on: MALME-3M melanoma
# MDA-MB-231 breast = tested on: MDA-MB-231 breast
# HL-60(TB) leukemia = tested on: HL-60(TB) leukemia
# UACC-257 melanoma = tested on: UACC-257 melanoma
# M14 melanoma = tested on: M14 melanoma
# K-562 leukemia = tested on: K-562 leukemia
# A549 NSCLC = tested on: A549 NSCLC
# EKVX NSCLC = tested on: EKVX NSCLC
# MOLT-4 leukemia = tested on: MOLT-4 leukemia
# SF-539 CNS = tested on: SF-539 CNS
# HOP-62 NSCLC = tested on: HOP-62 NSCLC
# OVCAR-8 ovarian = tested on: OVCAR-8 ovarian
# OVCAR-5 ovarian = tested on: OVCAR-5 ovarian
# HCT-116 colon = tested on: HCT-116 colon
# RXF 393 renal = tested on: RXF 393 renal
# MDA-MB-435 = tested on: MDA-MB-435
# SW-620 colon = tested on: SW-620 colon
compound,measurement,setting,value
COc1cc2c3c(n(CCCN=[N+]=[N-])c(=O)c2cc1OC)-c1ccc(C#N)cc1C3=O,GI50,SK-MEL-2 melanoma,16.6 µM
same,TGI,SK-MEL-2 melanoma,86.1 µM
same,GI50,RPMI-8226 leukemia,> 100 µM
same,TGI,RPMI-8226 leukemia,> 100 µM
same,GI50,A498 renal,18.5 µM
same,TGI,A498 renal,58.5 µM
same,GI50,LOX IMVI melanoma,16.9 µM
same,TGI,LOX IMVI melanoma,46 µM
same,GI50,CCRF-CEM leukemia,> 100 µM
same,TGI,CCRF-CEM leukemia,> 100 µM
same,GI50,786-0 renal,13.1 µM
same,TGI,786-0 renal,33.7 µM
same,GI50,SK-OV-3 ovarian,15.5 µM
same,TGI,SK-OV-3 ovarian,40.3 µM
same,GI50,U251 CNS,10.5 µM
same,TGI,U251 CNS,27.6 µM
same,GI50,SK-MEL-5 melanoma,> 100 µM
same,TGI,SK-MEL-5 melanoma,> 100 µM
same,GI50,HS 578T breast,9.67 µM
same,TGI,HS 578T breast,38.9 µM
same,GI50,HT29 colon,> 100 µM
same,TGI,HT29 colon,> 100 µM
same,GI50,UACC-62 melanoma,12.4 µM
same,TGI,UACC-62 melanoma,37.4 µM
same,GI50,NCI-H460 lung,27.7 µM
same,TGI,NCI-H460 lung,> 100 µM
same,GI50,NCI-H522 lung,14.5 µM
same,TGI,NCI-H522 lung,> 100 µM
same,GI50,HOP-92 NSCLC,21.2 µM
same,TGI,HOP-92 NSCLC,79.1 µM
same,GI50,HCC-2998 colon,44.6 µM
same,TGI,HCC-2998 colon,> 100 µM
same,GI50,TK-10 renal,17 µM
same,TGI,TK-10 renal,34.9 µM
same,GI50,DU-145 prostate,34.3 µM
same,TGI,DU-145 prostate,> 100 µM
same,GI50,SN12C renal,15.7 µM
same,TGI,SN12C renal,> 100 µM
same,GI50,COLO 205 colon,92.3 µM
same,TGI,COLO 205 colon,> 100 µM
same,GI50,BT-549 breast,12.9 µM
same,TGI,BT-549 breast,28 µM
same,GI50,SNB-75 CNS,4.27 µM
same,TGI,SNB-75 CNS,21.4 µM
same,GI50,NCI/ADR-RES ovarian,72.4 µM
same,TGI,NCI/ADR-RES ovarian,> 100 µM
same,GI50,SF-295 CNS,14.1 µM
same,TGI,SF-295 CNS,31.5 µM
same,GI50,PC-3 prostate,> 100 µM
same,TGI,PC-3 prostate,> 100 µM
same,GI50,T-47D breast,> 100 µM
same,TGI,T-47D breast,> 100 µM
same,GI50,ACHN renal,3.3 µM
same,TGI,ACHN renal,13.1 µM
same,GI50,HCT-15 colon,57.9 µM
same,TGI,HCT-15 colon,> 100 µM
same,GI50,OVCAR-3 ovarian,17 µM
same,TGI,OVCAR-3 ovarian,58.2 µM
same,GI50,MCF7 breast,> 100 µM
same,TGI,MCF7 breast,> 100 µM
same,GI50,CAKI-1 renal,32 µM
same,TGI,CAKI-1 renal,> 100 µM
same,GI50,SNB-19 CNS,37 µM
same,TGI,SNB-19 CNS,> 100 µM
same,GI50,SK-MEL-28 melanoma,> 100 µM
same,TGI,SK-MEL-28 melanoma,> 100 µM
same,GI50,NCI-H226 lung,42.1 µM
same,TGI,NCI-H226 lung,> 100 µM
same,GI50,OVCAR-4 ovarian,> 100 µM
same,TGI,OVCAR-4 ovarian,> 100 µM
same,GI50,KM12 colon,> 100 µM
same,TGI,KM12 colon,> 100 µM
same,GI50,NCI-H23 lung,8.75 µM
same,TGI,NCI-H23 lung,22 µM
same,GI50,UO-31 renal,> 100 µM
same,TGI,UO-31 renal,> 100 µM
same,GI50,SF-268 CNS,17.7 µM
same,TGI,SF-268 CNS,> 100 µM
same,GI50,MALME-3M melanoma,70.8 µM
same,TGI,MALME-3M melanoma,> 100 µM
same,GI50,MDA-MB-231 breast,2.93 µM
same,TGI,MDA-MB-231 breast,16.2 µM
same,GI50,HL-60(TB) leukemia,> 100 µM
same,TGI,HL-60(TB) leukemia,> 100 µM
same,GI50,UACC-257 melanoma,> 100 µM
same,TGI,UACC-257 melanoma,> 100 µM
same,GI50,M14 melanoma,46.7 µM
same,TGI,M14 melanoma,> 100 µM
same,GI50,K-562 leukemia,> 100 µM
same,TGI,K-562 leukemia,> 100 µM
same,GI50,A549 NSCLC,> 100 µM
same,TGI,A549 NSCLC,> 100 µM
same,GI50,EKVX NSCLC,28.9 µM
same,TGI,EKVX NSCLC,> 100 µM
same,GI50,MOLT-4 leukemia,> 100 µM
same,TGI,MOLT-4 leukemia,> 100 µM
same,GI50,SF-539 CNS,17.4 µM
same,TGI,SF-539 CNS,47.2 µM
same,GI50,HOP-62 NSCLC,14.2 µM
same,TGI,HOP-62 NSCLC,33.3 µM
same,GI50,OVCAR-8 ovarian,49.1 µM
same,TGI,OVCAR-8 ovarian,> 100 µM
same,GI50,OVCAR-5 ovarian,88.7 µM
same,TGI,OVCAR-5 ovarian,> 100 µM
same,GI50,HCT-116 colon,24.1 µM
same,TGI,HCT-116 colon,> 100 µM
same,GI50,RXF 393 renal,12.2 µM
same,TGI,RXF 393 renal,30.2 µM
same,GI50,MDA-MB-435,> 100 µM
same,TGI,MDA-MB-435,> 100 µM
same,GI50,SW-620 colon,> 100 µM
same,TGI,SW-620 colon,> 100 µM
